Experimental findings from patent US20240181022A1, “AMURINS LYSINS, AND LYSIN-ANTIMICROBIAL PEPTIDE (AMP) CONSTRUCTS ACTIVE AGAINST GRAM-NEGATIVE BACTERIA” (priority 2021, published 2024) are described below.

In brackets after ≈: the same amount, converted by molar mass. Like-named read-outs stand apart in the source and are kept apart here. Where a SMILES comes first, the peptide text is derived from it. Where no end group is shown, it is not given here. [ ]: non-standard residue; d: D form. Some results are limits rather than exact numbers.

The test system of test [1] is M. kansasii. As to the kind of experiment: MIC against M. kansasii. Conditions: M. kansasi (ATCC 12478); CAAT media. It is filed as cell-based, Mycobacterium kansasii.
Test [2] deals with M. avium. As to the kind of experiment: MIC against M. avium. Conditions: M. avium (ATCC 700898); CAAT media. It is filed as cell-based, Mycobacterium avium.
Test [3] deals with M. intracellulare. As to the kind of experiment: MIC against M. intracellulare. Conditions: M. intracellulare (ATCC 13950); CAAT media. Format: cell-based, Mycobacterium intracellulare.
In test [4] the test system is M. abscessus. As to the kind of experiment: MIC against MDR M. abscessus isolates. As to conditions: 7 days; for MIC: AST media (CAAT). Format: cell-based, Mycobacterium abscessus.
For test [5], the system named is M. fortuitum. As to the kind of experiment: MIC against M. fortuitum. Conditions: M. fortuitum (ATCC 6841); CAAT media. Format: cell-based, Mycobacterium fortuitum.
Test [6] deals with Mycobacterium species. Format: cell-based.
The subject of test [7] is M. scrofulaceum. As to the kind of experiment: MIC against M. scrofulaceum. Format: cell-based, Mycobacterium scrofulaceum. Conditions: M. scrofulaceum (ATCC 19981); CAAT media.
Test [8] relates to M. smegmatis. As to the kind of experiment: MIC against M. smegmatis. Conditions: M. smegmatis (MC 155); CAAT media. Format: cell-based, Mycobacterium smegmatis.
Test [9] concerns M. tuberculosis. It is filed as cell-based, Mycobacterium tuberculosis.
The test system of test [10] is A. baumannii. As to the kind of experiment: Checkerboard synergy assay (FICI) against A. baumannii. It is filed as cell-based, Acinetobacter baumannii. As to conditions: A. baumannii ATCC BAA-747. Here is the method: (§1) Any known method to assess MIC may be used.
(§2) Checkerboards are constructed by first preparing columns of e.g., a 96-well polypropylene microtiter plate, wherein each well has the same amount of antibiotic diluted 2-fold along the horizontal axis. […] Bacteria are added to the drug combinations at concentrations of 1×10^5 […] in CAA, for example, with or without human serum or pulmonary surfactant. […] Summation fractional inhibitory concentrations (ΣFICs) are calculated for each drug and the minimum ΣFIC value (ΣFICmin) is used to determine the effect of the Chp peptide/antibiotic combination.
(§3) GN370 was further tested in combination with up to seven additional antibiotics (in addition to meropenem) against a variety of bacterial strains, including P. aeruginosa, A. baumannii, E. coli, E. cloacae, and K. pneumoniae. GN370 and the subject antibiotics were tested in a checkerboard assay format, and FICI values were determined, wherein ≤0.5 indicates synergy, >0.5-≤1 indicates additive; and >1 indicates indifferent.

Test [11] has as its system K. pneumoniae. As to the kind of experiment: Checkerboard synergy assay (FICI) against K. pneumoniae. Conditions: K. pneumoniae HM-44. It is filed as cell-based, Klebsiella pneumoniae. The method, then:
as §1, §2, §3

Setting [12] is: M. abscessus strain BK51403 (ATCC 19977).
Setting [13] is: M. tuberculosis (ATCC 35817), (ADC, T) media.
Where [14] appears, read: M. tuberculosis strain TN8109_LB (MDR), 7H9 broth, 20 days.
[15] abbreviates: M. tuberculosis strain TN8562_M33 (susc), 7H9 broth, 20 days.
Where [16] appears, read: M. tuberculosis strain TN10525_LL (MDR), 7H9 broth, 20 days.
[17] abbreviates: M. tuberculosis strain TN10571_KY (MDR), 7H9 broth, 20 days.
The mark [18] stands for this setting: M. tuberculosis strain TN12657_KQ15 (IS), 7H9 broth, 20 days.
[19] abbreviates: M. tuberculosis strain TN13923_HD17 (susc), 7H9 broth, 20 days.
Where [20] appears, read: M. tuberculosis strain TN18349_W738 (susc), 7H9 broth, 20 days.
The mark [21] stands for this setting: M. tuberculosis strain TN34503_001 (susc), 7H9 broth, 20 days.

As for `CC[C@H](C)[C@H](NC(=O)CNC(=O)CNC(=O)[C@H](CCCNC(=N)N)NC(=O)[C@H](CCSC)NC(=O)[C@@H](NC(=O)[C@H](CCCNC(=N)N)NC(=O)[C@H](CCCNC(=N)N)NC(=O)[C@H](CC(C)C)NC(=O)[C@H](CCCNC(=N)N)NC(=O)[C@H](CC(N)=O)NC(=O)[C@H](CCCNC(=N)N)NC(=O)[C@@H]1CCCN1C(=O)[C@H](Cc1c[nH]cn1)NC(=O)[C@H](CCSC)NC(=O)[C@H](CCCNC(=N)N)NC(=O)[C@H](CC(C)C)NC(=O)[C@H](C)NC(=O)[C@@H](NC(=O)[C@H](CCCNC(=N)N)NC(=O)[C@H](CO)NC(=O)[C@H](Cc1ccccc1)NC(=O)[C@H](CC(C)C)NC(=O)[C@H](CCCNC(=N)N)NC(=O)[C@H](CCCNC(=N)N)NC(=O)[C@H](CO)NC(=O)[C@H](CCCNC(=N)N)NC(=O)[C@H](CCCNC(=N)N)NC(=O)[C@H](CCCNC(=N)N)NC(=O)[C@@H]1CCCN1C(=O)[C@H](CC(C)C)NC(=O)[C@H](CCCNC(=N)N)NC(=O)[C@H](Cc1ccc(O)cc1)NC(=O)[C@H](CCCNC(=N)N)NC(=O)[C@H](CCCNC(=N)N)NC(=O)[C@H](CCCNC(=N)N)NC(=O)[C@H](C)NC(=O)[C@@H](N)CCSC)[C@@H](C)O)[C@@H](C)CC)C(=O)N[C@@H](CCCNC(=N)N)C(=O)N[C@@H](Cc1ccccc1)C(=O)O` [AM18] (H-MARRRYRLPRRRSRRLFSRTALRMHPRNRLRRIMRGGIRF-OH), the MIC in test [1] turned out to be 4 mg/L (≈ 0.772 µM); in test [2], 2 Tg/mL; in test [3], 1 mg/L (≈ 0.193 µM); in test [4] (M. abscessus strain BK51402), 2 mg/L (≈ 0.386 µM); in [4] (setting [12]), 1 mg/L (≈ 0.193 µM); in [4] (M. abscessus strain BK51408), 4 mg/L (≈ 0.772 µM). Besides, the MIC in test [4] (M. abscessus strain BK55096) turned out to be 4 mg/L (≈ 0.772 µM); in test [4] (M. abscessus strain BK55691), 2 mg/L (≈ 0.386 µM); in [4] (M. abscessus strain BK58156), 16 mg/L (≈ 3.09 µM); in [5] it was 2 mg/L (≈ 0.386 µM); in [7], 4 mg/L (≈ 0.772 µM); in [8] it was 0.25 mg/L (≈ 0.0483 µM). Moreover, the MIC in [9] (setting [13]) amounted to 4 mg/L (≈ 0.772 µM); in test [9] (setting [14]), 1 mg/L (≈ 0.193 µM); in test [9] (setting [15]), 2 mg/L (≈ 0.386 µM); in test [9] (setting [16]) it was 1 mg/L (≈ 0.193 µM); in test [9] (setting [17]) it was 2 mg/L (≈ 0.386 µM); in test [9] (setting [18]) it was 1 mg/L (≈ 0.193 µM). The MIC in test [9] (setting [19]) is 1 mg/L (≈ 0.193 µM); in [9] (setting [20]), 2 mg/L (≈ 0.386 µM); in [9] (setting [21]), 0.5 mg/L (≈ 0.0965 µM). In [6], the “activity (MIC) against Mycobacterium species” value is listed as “highest activity”.

On to `Cc1nnc(SCC2=C(C(=O)O)N3C(=O)[C@@H](NC(=O)Cn4cnnn4)[C@H]3SC2)s1` [Cefazolin], for which the “FICI of the antibiotic with GN370” value came to 0.5 in test [10] and 0.375 in test [11].

Consider “AM9: Modified variant of Unp2, SEQ ID NO: 97 (M[dR][dR][dR][dR]LS[dR][dR]TS[dR][dR]FF[dR][dK]GL[dK]V[dR][dR][dR]NL[dR]A[dR]PM[dR]GGF[dR]I)”, for which the MIC amounted to 2 mg/L in test [1]; 1 Tg/mL in test [2]; 2 mg/L in [3]; 1 mg/L in test [4] (M. abscessus strain BK51402); 4 mg/L in test [4] (setting [12]); 4 mg/L in test [4] (M. abscessus strain BK51408). For the same compound, the MIC in [4] (M. abscessus strain BK55096) was found to be 2 mg/L; in [4] (M. abscessus strain BK55691) it was 2 mg/L; in test [4] (M. abscessus strain BK58156), 2 mg/L; in test [5], 4 mg/L; in test [7], 4 mg/L; in [8] it was 1 mg/L. For the same compound, the MIC turned out to be 4 mg/L in test [9] (setting [13]); 16 mg/L in test [9] (setting [14]); 16 mg/L in test [9] (setting [15]); 64 mg/L in [9] (setting [16]); 8 mg/L in test [9] (setting [17]); 16 mg/L in test [9] (setting [18]). In addition, the MIC in [9] (setting [19]) came out at 16 mg/L; in [9] (setting [20]), 8 mg/L; in test [9] (setting [21]), 16 mg/L. In [4] (5 clinical MDR strains and 1 ATCC strain, CAAT), the “activity (MIC) against M. abscessus” value is reported as “good activity”. The “activity (MIC) against Mycobacterium species” value in test [6] (30 amurin peptides, seven species, CAAT media) is recorded as “highest activity”.

As to “Spi1: SEQ ID NO: 25, Spiroplasma virus SpV4 Orf9 (MAYRGFKTSRVVKHRVRRRWFNHRRRYR; Spiroplasma virus SpV4)”, the MIC in test [1] is 0.5 mg/L; in test [2], above 64 Tg/mL; in test [3], 4 mg/L; in test [5], 8 mg/L; in test [7] it was 2 mg/L; in test [8] it was 16 mg/L. In [9] (setting [13]), this compound had an MIC of 16 mg/L.

As to “Spi2-M1: Modified variant of Spi2, SEQ ID NO: 99 (M[dR][dR][dK]V[dK]NT[dK][dR]HQW[dR]LTHSA[dR]SI[dK][dR]ANIMPSNP[dR]GG[dR][dR])”, the MIC in [1] is 4 mg/L; in test [2], above 64 Tg/mL; in test [3] it was above 64 mg/L; in test [5], 4 mg/L; in test [7], 16 mg/L; in [8], 1 mg/L. This compound also displayed an MIC in test [9] (setting [13]) of 8 mg/L.

On to “Spi2: SEQ ID: 26, Spiroplasma virus SpV4 Orf8 (MRRKVKNTKRHQWRLTHSARSIKRANIMPSNPRGGRRF; Spiroplasma virus SpV4)”, for which the MIC was 1 mg/L in test [1]; above 64 Tg/mL in [2]; above 64 mg/L in test [3]; 4 mg/L in test [5]; 8 mg/L in test [7]; 4 mg/L in [8]. Further, the MIC in [9] (setting [13]) turned out to be 16 mg/L.

For the compound “Unp1: SEQ ID NO: 15, unnamed protein product (uncultured bacterium) (MKMRKRTDKRVFTRTAAKSKKVNIAPKIFRGGIRL)”, the MIC came to 8 mg/L in test [1]; 1 Tg/mL in [2]; 32 mg/L in test [3]; 8 mg/L in [5]; 8 mg/L in test [7]; 2 mg/L in test [8]. The MIC in [9] (setting [13]) worked out at 4 mg/L.

Regarding “Unp2: SEQ ID NO: 20, unnamed protein product (MRRRRLSRRTSRRFFRKGLKVRRRNLRARPMRGGFRI)”, the MIC in test [1] was determined as 2 mg/L; in test [2] it was 0.5 Tg/mL; in test [3] it was 1 mg/L; in test [5], 2 mg/L; in test [7] it was 4 mg/L; in test [8], 4 mg/L. This compound also showed an MIC in [9] (setting [13]) of 8 mg/L.

As to “Unp3-M1: Modified variant of Unp3, SEQ ID NO: 98 (MA[dR][dR][dK][dK]M[dK]G[dK][dR]D[dK][dR]VF[dK]QTAN[dK]T[dK]AINISP[dK]NM[dR]GGT[dR]L)”, the MIC in test [1] was 16 mg/L; in test [2], 8 Tg/mL; in test [3] it was above 64 mg/L; in test [5] it was 4 mg/L; in [7] it was 8 mg/L; in test [8], 8 mg/L. In test [9] (setting [13]), this compound gave an MIC of 4 mg/L.

With “Unp4: SEQ ID NO: 94, Marine gokushovirus (MIVRRHKMSRRRSRKLFSKTASRTRSKNLRSRPMRGGYRI; listed as Marine gokushovirus)”, the MIC in test [1] was 4 mg/L; in test [2], 1 Tg/mL; in test [3], 4 mg/L; in test [5] it was 4 mg/L; in [7], 4 mg/L; in test [8], 16 mg/L. The compound also yielded an MIC in test [9] (setting [13]) of 16 mg/L.
